Results: paper PMC3461044, “Probing Protein Sequences as Sources for Encrypted Antimicrobial Peptides” (PLoS ONE, 2012)
No end group written: not given here.

Assays:
[1] = test system: Xanthomonas axonopodis pv. glycines; conditions: for MIC, Xanthomonas axonopodis pv. glycines: serial 2-fold dilutions, 96-well, inoculum ~10^5 CFU/mL, highest 256 µg/mL, 48 h, OD600, NDA = Non-detectable activity; for 1/(log(MICs (mM)), Xanthomonas axonopodis pv. glycines): from MIC, 0 where no detectable activity
Protocol: MICs were determined using the M7-A6 protocol from the Clinical Laboratory Standards Institute (CLSI). […] Initial bacterium inoculum of ∼10^5 colony forming units/mL were transferred, along with serial 2-fold dilutions of each peptide to 96-well plates and incubated for 12 h. […] For each peptide concentration, optical density (OD600) readings were subtracted from that of the growth medium and divided by the positive control (100% bacterial growth). Inhibitory assays for X. axonopodis pv. glycines were conducted by the same methodology with longer incubation time (48 h).

[2] = Far UV circular dichroism of peptides in buffer (MRE, α-helix percentage); format: physicochemical; conditions: for [q]208 nm Buffer (Greenfield 69): Mean Residue Ellipticity at 208 nm; for [q]208 nm Buffer (Greenfield 69) / [q]222 nm Buffer (Chen 74): peptide in buffer, far UV CD; for [q]222 nm Buffer (Chen 74): Mean Residue Ellipticity at 222 nm; for % Helicity (Buffer) (Greenfield 69): from [q]208 nm, methodology of Greenfield et al. 1969; for % Helicity (Buffer) (Chen 74): from [q]222 nm, methodology of Chen et al. 1974
Protocol: Far UV CD spectra were acquired for peptides at 20 µM in buffer and in the presence of DMPC or 2∶1 DMPC:DMPG LUVs at 1 mol% peptide/phospholipids. Peptides presented different degrees of secondary structures upon LUVs addition. […] Following the addition of LUVs, some peptides changed conformation resulting in spectral features characteristic of α-helical structures.
Experiments were conducted on a Jasco-J810 spectropolarimeter (Jasco International Co., Japan). Spectra were acquired at room temperature from 194 to 260 nm as an average of 4 readings using a 0.1 cm path length cell, data pitch of 0.2 nm and a response time of 0.5 s. Data Scans of buffer and 2 mM DMPC and 2∶1 DMPC:DMPG LUVs solutions were acquired and subtracted from each peptide data. Peptides were scanned at a concentration of 20 µM in buffer and then 100 fold excess of DMPC and 2∶1 DMPC:DMPG LUVs were added, resulting in a molar ratio of 0.01 peptide/phospholipids. […] Proximity to equilibrium was verified by scanning peptides added with twice the LUVs concentration, approximately 4 mM.

[3] = test system: Staphylococcus aureus ATCC 29313; format: cell-based; conditions: for MIC, Staphylococcus aureus: Mueller-Hinton broth, serial 2-fold dilutions, inoculum ~10^5 CFU/mL, highest 256 µg/mL, 12 h, OD600, NDA = Non-detectable activity; for 1/(log(MICs (mM)), Staphylococcus aureus): from MIC, 0 where no detectable activity
Protocol: (§1) MICs were determined using the M7-A6 protocol from the Clinical Laboratory Standards Institute (CLSI). Escherichia coli ATCC 25922, Pseudomonas aeruginosa ATCC 27853, Staphylococcus aureus ATCC 29313 were streaked in Mueller-Hinton agar, grown overnight at 37°C, transferred to Mueller-Hinton broth and incubated until readings at 600 nm reached the equivalent of 0.5 in the MacFarland scale. […]. Inhibitory assays for X. axonopodis pv. glycines were conducted by the same methodology with longer incubation time (48 h).

[4] = test system: Pseudomonas aeruginosa ATCC 27853; format: cell-based; conditions: for MIC, Pseudomonas aeruginosa: Mueller-Hinton broth, serial 2-fold dilutions, inoculum ~10^5 CFU/mL, highest 256 µg/mL, 12 h, OD600, NDA = Non-detectable activity; for 1/(log(MICs (mM)), Pseudomonas aeruginosa): from MIC, 0 where no detectable activity
Protocol: as §1

[5] = test system: Escherichia coli ATCC 25922; format: cell-based; conditions: for MIC, Escherichia coli: Mueller-Hinton broth, serial 2-fold dilutions, inoculum ~10^5 CFU/mL, highest 256 µg/mL, 12 h, OD600, NDA = Non-detectable activity; for 1/(log(MICs (mM)), Escherichia coli): from MIC, 0 where no detectable activity
Protocol: as §1

Substance	MIC, Xanthomonas axonopodis pv. glycines [1]	1/(log(MICs (mM)), Xanthomonas axonopodis pv. glycines) [1]	[q]208 nm Buffer (Greenfield 69) [2]	[q]222 nm Buffer (Chen 74) [2]	% Helicity (Buffer) (Greenfield 69) [2]	% Helicity (Buffer) (Chen 74) [2]	MIC, Staphylococcus aureus [3]	1/(log(MICs (mM)), Staphylococcus aureus) [3]	MIC, Pseudomonas aeruginosa [4]	1/(log(MICs (mM)), Pseudomonas aeruginosa) [4]	MIC, Escherichia coli [5]	1/(log(MICs (mM)), Escherichia coli) [5]	concentration that inhibited the in vitro growth of X. axonopodis pv. glycines ([1]; in vitro growth)
AAAAAAAIKMLMDLVNERIMALNKKAKK [Q6TV81(25–52)]	<1 µM												
FFFDTLKNLAGKVIGALT [Phes, reference compound]	33 µM												
FINKAGKLQSQLRTTVVAAAAFLDAFQKVA [O43312(33–62)]	80 µM												
FKALRALRLEDLRIPTSYIK [A3KLW0(117–136), putative IAP; fragment of Rubisco large chain, Anisophyllea pomifera]	NDA	0	-11457	-3442	25.7%	9.8%	NDA	0	NDA	0	NDA	0	
FKQFHFKDFNRAFGFMTRVALQAEKL [P61458(35–60)]	40 µM												
FLSLIPHAINAVSTLVHHF [PS -2, reference compound]	121 µM												
FVTNSKRLAEGIEKGVGNSILIKVN [Q8KG25(327–351), putative IAP; fragment of Enolase 2, Chlorobium tepidum]	NDA	0	-7856	-6669	13.3%	18.9%	NDA	0	NDA	0	NDA	0	
GHRGALKDWVQAAGGAVAAFDFTTKG [Q8RW88(70–95), putative IAP; fragment of Alpha-amylase, Citrus reticulata]	NDA	0	-4005	-6062	0.0168%	17.2%	NDA	0	NDA	0	NDA	0	
GIGDILKNLAKAAGKAALHAVGESL [HSP-4, reference compound]	<2 µM												
GIGKFLHSAKKFGKAFVGEIMNS-NH2 [Magainin-2 amide, reference compound]	13 µM												
GKFHQIKKMFLSVGVKVTSLKRIQFGDF [A5LDU0(184–211)]	10 µM												
GLKDMIKNLAKEAAVKLAGAVINKFSPQPQ [Nattererin-1, reference compound]	<1 µM												
GLNTLKKVIQGLHEVIKLVNNHA [Pseudin B, reference compound]	<2 µM												
GLWQIFSSKEEGKDNSQQKSKGDQAKEL [gb|ACU24018.1|(73–101), putative IAP; fragment of Unknown protein, Glycine max]	NDA	0	-7591	-2129	12.4%	6%	NDA	0	NDA	0	NDA	0	
GLWSTIKQKGKE [DS 01 (1–12), fragment 1–12 of DS 01, Phyllomedusa oreades, reference compound]	NDA	0	-9158	-2137	17.8%	6.1%	NDA	0	NDA	0	NDA	0	
GLWSTIKQKGKEAAIAAAKAAGQAALGAL [DS 01, reference compound]	<1 µM												
GVLDILKGAAKDLAGHVATKVINKI [Syphaxin, reference compound]	25 µM												
Gm0026x00785(77–103) (HKMDLHWYLRTLEEVVIRALQRFQFR)													10 µM
IAAAQRITSGAADIAINWAGGLHHAKK [B0CZJ3(104–130), putative IAP; fragment of Histone deacetylase complex, Laccaria bicolor]	NDA	0	-17825	-7158	47.7%	20.3%	NDA	0	NDA	0	NDA	0	
KAGLQFPVGRIARFLK [B4FGE3(22–37), putative IAP; fragment of Histone H2A, Zea mays]	NDA	0	-5213	-1506	4.2%	4.3%	NDA	0	NDA	0	NDA	0	
KLKKLLAGQKDGLLGQIAAMSDLYTKK [P94692(929–955), putative IAP; fragment of Pyruvate-ferredoxin oxidoreductase, Desulfovibrio africanus]	NDA	0	-6507	-2066	8.6%	5.9%	NDA	0	NDA	0	NDA	0	
LAKRRVLTLLRQLRRVSPSS [Q7YRI0(9–28)]	<2 µM												
LRPAILVRVKGKGL [Hyposin HA-6, reference compound]	42 µM												
LVQRFHAYLHKFREAFMNVGAAAAVEGTKAA [A4HW34(187–217)]	37 µM												
SLWKNLSRKISGAVKAQPDLHTLLPLPGS [Q9XEY7(120–148), putative IAP; fragment of Trehalase 1 GMTRE1, Glycine max]	NDA	0	-11377	-2931	25.4%	8.3%	NDA	0	NDA	0	NDA	0	
VWTTAMEKSSAANFSMSRNQRRSSLHSL [gb|AAD22970.1|(120–148), putative IAP; fragment of Trehalase 1 GMTRE1, Glycine max]	NDA	0					NDA	0	NDA	0	NDA	0	
